PubChem BioAssay (NCI)
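The concentration for 50% growth inhibition is given as GI50. The concentration for full growth arrest is given as TGI.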

Experiments:
Assay in all cases: DTP human tumour cell line panel, 384-well format
BT-549 breast = system: BT-549 breast
NCI-H322M lung = system: NCI-H322M lung
NCI-H460 NSCLC = system: NCI-H460 NSCLC
TK-10 renal = system: TK-10 renal
CAKI-1 renal = system: CAKI-1 renal
SF-268 CNS = system: SF-268 CNS
SK-OV-3 ovarian = system: SK-OV-3 ovarian
MCF7 breast = system: MCF7 breast
SF-539 CNS = system: SF-539 CNS
A498 renal = system: A498 renal
HT29 colon = system: HT29 colon
MDA-MB-468 breast = system: MDA-MB-468 breast
OVCAR-8 ovarian = system: OVCAR-8 ovarian
A549 NSCLC = system: A549 NSCLC
SF-295 CNS = system: SF-295 CNS
MDA-MB-231 breast = system: MDA-MB-231 breast
RPMI-8226 leukemia = system: RPMI-8226 leukemia
T-47D breast = system: T-47D breast
CCRF-CEM leukemia = system: CCRF-CEM leukemia
HL-60(TB) leukemia = system: HL-60(TB) leukemia
RXF 393 renal = system: RXF 393 renal
UACC-62 melanoma = system: UACC-62 melanoma
MALME-3M melanoma = system: MALME-3M melanoma
HS 578T breast = system: HS 578T breast
NCI/ADR-RES ovarian = system: NCI/ADR-RES ovarian
OVCAR-3 ovarian = system: OVCAR-3 ovarian
UACC-257 melanoma = system: UACC-257 melanoma
NCI-H522 lung = system: NCI-H522 lung
SK-MEL-28 melanoma = system: SK-MEL-28 melanoma
OVCAR-5 ovarian = system: OVCAR-5 ovarian
DU-145 prostate = system: DU-145 prostate
NCI-H226 lung = system: NCI-H226 lung
LOX IMVI melanoma = system: LOX IMVI melanoma
786-0 renal = system: 786-0 renal
HCC-2998 colon = system: HCC-2998 colon
MDA-MB-435 melanoma = system: MDA-MB-435 melanoma
HCT-116 colon = system: HCT-116 colon
SNB-75 CNS = system: SNB-75 CNS
U251 glioblastoma = system: U251 glioblastoma
SN12C renal = system: SN12C renal
HOP-92 NSCLC = system: HOP-92 NSCLC
MOLT-4 leukemia = system: MOLT-4 leukemia
OVCAR-4 ovarian = system: OVCAR-4 ovarian
ACHN renal = system: ACHN renal
NCI-H23 lung = system: NCI-H23 lung
KM12 colon = system: KM12 colon
HOP-62 NSCLC = system: HOP-62 NSCLC
COLO 205 colon = system: COLO 205 colon
SK-MEL-5 melanoma = system: SK-MEL-5 melanoma
IGROV1 ovarian = system: IGROV1 ovarian
UO-31 renal = system: UO-31 renal
PC-3 prostate = system: PC-3 prostate
M14 melanoma = system: M14 melanoma
SW-620 colon = system: SW-620 colon
EKVX NSCLC = system: EKVX NSCLC
SNB-19 CNS = system: SNB-19 CNS
HCT-15 colon = system: HCT-15 colon

COc1cc2ncnc(Oc3cccc(NC(=O)Nc4cc(C(C)(C)C(F)(F)F)on4)c3)c2cc1OC
GI50 (BT-549 breast): 1660 nM
TGI (BT-549 breast): 3080 nM
GI50 (NCI-H322M lung): 865 nM
TGI (NCI-H322M lung): 5180 nM
GI50 (NCI-H460 NSCLC): 1540 nM
TGI (NCI-H460 NSCLC): 4460 nM
GI50 (TK-10 renal): 1690 nM
TGI (TK-10 renal): 4030 nM
GI50 (CAKI-1 renal): 613 nM
TGI (CAKI-1 renal): 3600 nM
GI50 (SF-268 CNS): 216 nM
TGI (SF-268 CNS): 1100 nM
GI50 (SK-OV-3 ovarian): 871 nM
TGI (SK-OV-3 ovarian): 3140 nM
GI50 (MCF7 breast): 1970 nM
TGI (MCF7 breast): 7650 nM
GI50 (SF-539 CNS): 1350 nM
TGI (SF-539 CNS): 2780 nM
GI50 (A498 renal): 810 nM
TGI (A498 renal): 5310 nM
GI50 (HT29 colon): 174 nM
TGI (HT29 colon): 1650 nM
GI50 (MDA-MB-468 breast): 747 nM
TGI (MDA-MB-468 breast): 2310 nM
GI50 (OVCAR-8 ovarian): 2300 nM
TGI (OVCAR-8 ovarian): 9640 nM
GI50 (A549 NSCLC): 1260 nM
TGI (A549 NSCLC): 5570 nM
GI50 (SF-295 CNS): 2060 nM
TGI (SF-295 CNS): 4520 nM
GI50 (MDA-MB-231 breast): 192 nM
TGI (MDA-MB-231 breast): 3980 nM
GI50 (RPMI-8226 leukemia): 1760 nM
TGI (RPMI-8226 leukemia): 3140 nM
GI50 (T-47D breast): 1110 nM
TGI (T-47D breast): 3440 nM
GI50 (CCRF-CEM leukemia): 1450 nM
TGI (CCRF-CEM leukemia): 2770 nM
GI50 (HL-60(TB) leukemia): 309 nM
TGI (HL-60(TB) leukemia): 1750 nM
GI50 (RXF 393 renal): 1540 nM
TGI (RXF 393 renal): 3440 nM
GI50 (UACC-62 melanoma): 17.8 nM
TGI (UACC-62 melanoma): 267 nM
GI50 (MALME-3M melanoma): 14.6 nM
TGI (MALME-3M melanoma): 69.3 nM
GI50 (HS 578T breast): 1540 nM
TGI (HS 578T breast): 2990 nM
GI50 (NCI/ADR-RES ovarian): 2030 nM
TGI (NCI/ADR-RES ovarian): 4780 nM
GI50 (OVCAR-3 ovarian): 1750 nM
TGI (OVCAR-3 ovarian): 4600 nM
GI50 (UACC-257 melanoma): 57.5 nM
TGI (UACC-257 melanoma): 667 nM
GI50 (NCI-H522 lung): 242 nM
TGI (NCI-H522 lung): 1610 nM
GI50 (SK-MEL-28 melanoma): 35.1 nM
TGI (SK-MEL-28 melanoma): 541 nM
GI50 (OVCAR-5 ovarian): 1080 nM
TGI (OVCAR-5 ovarian): 4570 nM
GI50 (DU-145 prostate): 2790 nM
TGI (DU-145 prostate): 11000 nM
GI50 (NCI-H226 lung): 384 nM
TGI (NCI-H226 lung): 7550 nM
GI50 (LOX IMVI melanoma): 187 nM
TGI (LOX IMVI melanoma): 1020 nM
GI50 (786-0 renal): 1520 nM
TGI (786-0 renal): 3770 nM
GI50 (HCC-2998 colon): 1230 nM
TGI (HCC-2998 colon): 2570 nM
GI50 (MDA-MB-435 melanoma): 118 nM
TGI (MDA-MB-435 melanoma): 1940 nM
GI50 (HCT-116 colon): 581 nM
TGI (HCT-116 colon): 1970 nM
GI50 (SNB-75 CNS): 1860 nM
TGI (SNB-75 CNS): 3950 nM
GI50 (U251 glioblastoma): 1670 nM
TGI (U251 glioblastoma): 3170 nM
GI50 (SN12C renal): 850 nM
TGI (SN12C renal): 3280 nM
GI50 (HOP-92 NSCLC): 1260 nM
TGI (HOP-92 NSCLC): 2550 nM
GI50 (MOLT-4 leukemia): 1110 nM
TGI (MOLT-4 leukemia): 2310 nM
GI50 (OVCAR-4 ovarian): 3140 nM
TGI (OVCAR-4 ovarian): 12400 nM
GI50 (ACHN renal): 399 nM
TGI (ACHN renal): 2390 nM
GI50 (NCI-H23 lung): 168 nM
TGI (NCI-H23 lung): 1470 nM
GI50 (KM12 colon): 1920 nM
TGI (KM12 colon): 4430 nM
GI50 (HOP-62 NSCLC): 1530 nM
TGI (HOP-62 NSCLC): 3010 nM
GI50 (COLO 205 colon): 48.1 nM
TGI (COLO 205 colon): 1590 nM
GI50 (SK-MEL-5 melanoma): 206 nM
TGI (SK-MEL-5 melanoma): 1720 nM
GI50 (IGROV1 ovarian): 222 nM
TGI (IGROV1 ovarian): 1270 nM
GI50 (UO-31 renal): 976 nM
TGI (UO-31 renal): 3150 nM
GI50 (PC-3 prostate): 2510 nM
TGI (PC-3 prostate): 5730 nM
GI50 (M14 melanoma): 19.3 nM
TGI (M14 melanoma): 214 nM
GI50 (SW-620 colon): 1180 nM
TGI (SW-620 colon): 3670 nM
GI50 (EKVX NSCLC): 1050 nM
TGI (EKVX NSCLC): 3290 nM
GI50 (SNB-19 CNS): 4200 nM
TGI (SNB-19 CNS): 14000 nM
GI50 (HCT-15 colon): 1860 nM
TGI (HCT-15 colon): 6280 nM
